Reference: ChEMBL document CHEMBL1201862, “PubChem BioAssay data set” (2004)
Activity calls are given as the source filed them.

How the values were obtained:
[1] = blockers of CRF-binding protein–CRF-R2 complex – cell-based, uHTS hits, 384-well, dose response (AID 651639); type: functional, Homo sapiens; conditions: read-out: IC50_Mean
[2] = target: T1, Corticotropin-releasing factor receptor 2/Corticotropin-releasing factor-binding protein (Homo sapiens, UniProt P24387+Q13324); assay: Dose Response confirmation of uHTS hits for small molecule antagonists of the CRF-binding protein and CRF-R2 receptor complex.; type: functional; conditions: read-out: IC50_Mean
T1 sequence (Q13324 whole entry): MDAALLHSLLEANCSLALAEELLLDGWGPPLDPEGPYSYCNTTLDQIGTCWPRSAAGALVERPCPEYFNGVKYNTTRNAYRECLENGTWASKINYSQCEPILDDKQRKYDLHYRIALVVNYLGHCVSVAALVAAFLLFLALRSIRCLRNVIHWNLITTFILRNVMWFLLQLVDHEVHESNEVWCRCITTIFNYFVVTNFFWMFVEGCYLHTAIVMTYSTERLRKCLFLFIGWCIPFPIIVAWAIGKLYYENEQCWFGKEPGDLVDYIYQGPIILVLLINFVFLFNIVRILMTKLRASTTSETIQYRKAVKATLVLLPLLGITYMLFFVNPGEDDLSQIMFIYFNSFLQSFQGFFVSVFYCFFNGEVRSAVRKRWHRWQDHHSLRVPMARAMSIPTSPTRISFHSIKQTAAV
T1 sequence (P24387 whole entry): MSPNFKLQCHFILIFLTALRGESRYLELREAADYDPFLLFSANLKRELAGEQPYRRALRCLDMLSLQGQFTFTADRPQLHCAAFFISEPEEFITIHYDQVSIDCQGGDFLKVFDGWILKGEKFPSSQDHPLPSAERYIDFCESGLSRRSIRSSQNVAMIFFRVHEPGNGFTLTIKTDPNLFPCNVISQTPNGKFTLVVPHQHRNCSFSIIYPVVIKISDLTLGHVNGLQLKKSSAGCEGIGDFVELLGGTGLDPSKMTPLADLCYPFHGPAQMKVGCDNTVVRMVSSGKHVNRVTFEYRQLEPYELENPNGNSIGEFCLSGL

[3] = target: T1, Corticotropin-releasing factor receptor 2/Corticotropin-releasing factor-binding protein; assay: activators of CRF receptor 2 with binding protein – uHTS hits, confirmation (AID 602473); type: functional; conditions: read-out: EC50_Mean
Prothrombin = Prothrombin (Bos taurus, UniProt P00735); assay: thrombin protease inhibitors – biochemical, fluorescence polarization, uHTS hits, dose response (AID 602369); type: functional
[4] = target: 26S proteasome non-ATPase regulatory subunit 14 (Homo sapiens, UniProt O00487); assay: inhibition of proteasome subunit RPN11 – biochemical, fluorescence polarization, uHTS hits, confirmation (AID 602368); type: functional
26S proteasome non-ATPase regulatory subunit 14, sequence (O00487 whole entry): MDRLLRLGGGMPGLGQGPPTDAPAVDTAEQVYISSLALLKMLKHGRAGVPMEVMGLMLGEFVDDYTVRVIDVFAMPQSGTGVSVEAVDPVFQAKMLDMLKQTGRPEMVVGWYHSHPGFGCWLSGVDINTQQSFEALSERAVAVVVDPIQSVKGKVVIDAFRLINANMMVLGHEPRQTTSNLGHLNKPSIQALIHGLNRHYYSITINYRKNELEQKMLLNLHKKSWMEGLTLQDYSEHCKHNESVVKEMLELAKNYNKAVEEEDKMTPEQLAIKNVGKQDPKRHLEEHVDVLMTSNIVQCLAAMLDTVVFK

[5] = target: 72 kDa type IV collagenase (Homo sapiens, UniProt P08253); assay: Dose Response validation of uHTS RPN11 inhibitor hits using a MMP-2 Fluorescence assay.; type: functional
72 kDa type IV collagenase, sequence (P08253 whole entry): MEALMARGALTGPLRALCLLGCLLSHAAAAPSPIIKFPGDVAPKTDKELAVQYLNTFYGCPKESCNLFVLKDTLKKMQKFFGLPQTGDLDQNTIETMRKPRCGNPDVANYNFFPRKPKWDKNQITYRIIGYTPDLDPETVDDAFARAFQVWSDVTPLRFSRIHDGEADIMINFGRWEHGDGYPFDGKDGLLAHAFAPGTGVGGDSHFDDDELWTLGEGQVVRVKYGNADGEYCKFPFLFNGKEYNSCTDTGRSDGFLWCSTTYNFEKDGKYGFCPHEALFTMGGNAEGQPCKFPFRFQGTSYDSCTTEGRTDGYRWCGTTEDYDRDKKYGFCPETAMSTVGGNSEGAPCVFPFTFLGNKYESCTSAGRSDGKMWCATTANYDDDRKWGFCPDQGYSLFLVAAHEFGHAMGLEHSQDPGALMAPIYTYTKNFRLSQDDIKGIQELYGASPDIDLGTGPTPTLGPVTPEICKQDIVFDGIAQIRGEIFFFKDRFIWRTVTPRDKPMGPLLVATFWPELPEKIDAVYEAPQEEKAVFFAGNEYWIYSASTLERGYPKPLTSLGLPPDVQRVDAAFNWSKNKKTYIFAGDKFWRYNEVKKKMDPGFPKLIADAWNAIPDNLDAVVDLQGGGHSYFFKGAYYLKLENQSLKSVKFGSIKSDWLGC

[6] = target: T2, Endoribonuclease toxin MazF (Escherichia coli K-12, UniProt P0AE70); assay: substrate-only fluorescence increase artefacts – biochemical, single-stranded RNase substrate, counter-screen for MazEF activator project, dose response (AID 588502); type: functional
T2 sequence (P0AE70 whole entry): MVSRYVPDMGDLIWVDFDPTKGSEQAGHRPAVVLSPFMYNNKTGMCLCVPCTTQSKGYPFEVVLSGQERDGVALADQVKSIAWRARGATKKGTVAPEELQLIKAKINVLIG

[7] = target: T3, RNA-binding protein pos-1 (Caenorhabditis elegans, UniProt G5EF15); assay: disruptors of C. elegans POS-1 RNA interaction – biochemical, fluorescence polarization, dose response (AID 1964);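 further: purified POS-1 fused to maltose binding protein made in E. coli; potency of compounds blocking POS-1 binding to fluorescent RNA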
T3 sequence (G5EF15 whole entry): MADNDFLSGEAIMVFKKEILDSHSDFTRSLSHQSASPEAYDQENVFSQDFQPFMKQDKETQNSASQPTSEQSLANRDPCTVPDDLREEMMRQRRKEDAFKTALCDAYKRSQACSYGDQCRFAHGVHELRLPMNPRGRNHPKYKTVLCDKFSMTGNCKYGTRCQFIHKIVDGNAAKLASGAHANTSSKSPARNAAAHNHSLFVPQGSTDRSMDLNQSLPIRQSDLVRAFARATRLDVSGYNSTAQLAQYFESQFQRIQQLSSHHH

[8] = target: T2, Endoribonuclease toxin MazF; assay: activation of MazEF endoribonuclease cleavage – biochemical, fluorescence, single-stranded RNA substrate, uHTS hits, dose response (AID 588481); type: functional
[9] = target: T4, Zinc finger protein mex-5 (Caenorhabditis elegans, UniProt Q9XUB2); assay: potency of MEX-5 RNA-binding blockers – biochemical, C. elegans, fluorescence polarization, dose response (AID 1960)
T4 sequence (Q9XUB2 whole entry): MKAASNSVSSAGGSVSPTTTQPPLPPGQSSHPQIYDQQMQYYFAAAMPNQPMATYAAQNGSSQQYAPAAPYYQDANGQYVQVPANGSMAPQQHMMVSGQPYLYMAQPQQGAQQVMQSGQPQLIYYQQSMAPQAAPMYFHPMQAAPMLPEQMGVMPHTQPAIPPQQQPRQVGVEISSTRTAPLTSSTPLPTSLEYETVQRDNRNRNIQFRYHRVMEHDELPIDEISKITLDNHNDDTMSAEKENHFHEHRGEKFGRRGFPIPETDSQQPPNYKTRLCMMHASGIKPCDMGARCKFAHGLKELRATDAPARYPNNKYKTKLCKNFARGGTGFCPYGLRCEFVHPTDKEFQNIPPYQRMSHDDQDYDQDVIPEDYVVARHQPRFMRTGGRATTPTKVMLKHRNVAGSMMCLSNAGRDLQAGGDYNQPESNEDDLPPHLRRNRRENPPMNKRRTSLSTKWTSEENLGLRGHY

[10] = target: Heat shock protein HSP 90-alpha (Homo sapiens, UniProt P07900); type: functional, organism-based
[11] = target: T5, Apoptotic protease-activating factor 1 (Homo sapiens, UniProt O14727); type: functional
T5 sequence (O14727 whole entry): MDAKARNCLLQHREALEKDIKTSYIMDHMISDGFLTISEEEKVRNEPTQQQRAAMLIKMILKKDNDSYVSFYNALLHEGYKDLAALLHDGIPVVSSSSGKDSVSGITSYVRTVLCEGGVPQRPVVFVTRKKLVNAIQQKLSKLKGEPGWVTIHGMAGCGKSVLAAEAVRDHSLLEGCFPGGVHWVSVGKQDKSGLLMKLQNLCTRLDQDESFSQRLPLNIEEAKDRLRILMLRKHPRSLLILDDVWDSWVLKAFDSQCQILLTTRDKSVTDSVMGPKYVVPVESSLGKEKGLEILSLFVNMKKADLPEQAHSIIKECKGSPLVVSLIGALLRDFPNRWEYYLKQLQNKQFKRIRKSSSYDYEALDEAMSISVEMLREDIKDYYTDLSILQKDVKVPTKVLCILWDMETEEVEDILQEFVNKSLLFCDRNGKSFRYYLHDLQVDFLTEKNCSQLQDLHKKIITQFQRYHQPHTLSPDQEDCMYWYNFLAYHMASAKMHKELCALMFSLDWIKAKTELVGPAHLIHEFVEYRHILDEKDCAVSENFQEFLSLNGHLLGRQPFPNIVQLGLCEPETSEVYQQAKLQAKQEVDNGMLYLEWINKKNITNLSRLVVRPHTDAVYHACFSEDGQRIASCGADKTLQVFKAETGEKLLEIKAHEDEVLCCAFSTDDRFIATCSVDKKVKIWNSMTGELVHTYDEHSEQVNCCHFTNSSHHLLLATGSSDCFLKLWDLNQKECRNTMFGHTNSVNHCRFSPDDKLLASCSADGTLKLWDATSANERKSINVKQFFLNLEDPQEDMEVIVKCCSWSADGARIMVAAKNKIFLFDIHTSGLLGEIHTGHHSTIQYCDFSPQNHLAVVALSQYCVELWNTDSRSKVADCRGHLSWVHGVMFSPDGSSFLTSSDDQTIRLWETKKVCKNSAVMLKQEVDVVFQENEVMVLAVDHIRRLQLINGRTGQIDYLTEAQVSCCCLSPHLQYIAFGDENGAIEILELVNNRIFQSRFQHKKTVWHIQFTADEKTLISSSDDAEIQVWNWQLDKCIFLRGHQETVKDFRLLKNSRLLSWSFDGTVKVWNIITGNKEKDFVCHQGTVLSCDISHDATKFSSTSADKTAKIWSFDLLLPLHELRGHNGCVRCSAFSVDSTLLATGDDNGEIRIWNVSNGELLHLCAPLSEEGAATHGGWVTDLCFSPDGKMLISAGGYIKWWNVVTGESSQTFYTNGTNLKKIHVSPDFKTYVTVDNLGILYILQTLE

[12] = target: T6, Long-chain-fatty-acid--AMP ligase FadD28 (Mycobacterium tuberculosis, UniProt P9WQ59); assay: Fluorescence polarization aasay to screen for inhibitors that compete for the binding of FadD28 to a bisubstrate Measured in Biochemical System Using Plate Reader - 2147-01_Inhibitor_Dose_CherryPick_Activity.; type: functional, Mycobacterium tuberculosis H37Rv
T6 sequence (P9WQ59 whole entry): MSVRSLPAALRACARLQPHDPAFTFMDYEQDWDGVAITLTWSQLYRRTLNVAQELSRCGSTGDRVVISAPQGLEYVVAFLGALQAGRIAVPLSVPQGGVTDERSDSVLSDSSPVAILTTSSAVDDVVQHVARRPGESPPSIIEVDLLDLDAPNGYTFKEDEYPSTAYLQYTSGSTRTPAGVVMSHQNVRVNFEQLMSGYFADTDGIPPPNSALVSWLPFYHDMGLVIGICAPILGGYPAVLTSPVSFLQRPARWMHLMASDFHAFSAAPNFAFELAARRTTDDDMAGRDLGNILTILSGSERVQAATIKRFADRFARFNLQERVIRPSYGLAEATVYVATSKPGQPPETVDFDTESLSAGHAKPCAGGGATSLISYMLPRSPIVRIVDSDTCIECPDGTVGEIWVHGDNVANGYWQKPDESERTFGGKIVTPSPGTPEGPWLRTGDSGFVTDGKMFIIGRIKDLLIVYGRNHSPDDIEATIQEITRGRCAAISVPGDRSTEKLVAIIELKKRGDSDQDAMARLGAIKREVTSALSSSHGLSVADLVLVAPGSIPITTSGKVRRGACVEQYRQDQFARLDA

[13] = microbe, parasite or virus in culture; type: functional; conditions: Mycobacterium tuberculosis
[14] = viability of uninfected HEp-2 cells – cell-based, HTS, cytotoxicity control for RSV inhibitor project, dose response (AID 2410); type: functional; conditions: human respiratory syncytial virus

O=C(COC(=O)c1cnc(Cl)c(Cl)c1)NCCC1=CCCCC1
IC50 [1]: 7.15 µM (active)
IC50 [2]: 7.16 µM (active)
EC50 [3]: > 53 µM (inactive)

NC(=O)CC(NC(=O)Cc1ccc(Cl)cc1)c1ccc(NC2CCCC2)c([N+](=O)[O-])c1 (stereo not drawn)
IC50 (Prothrombin): 38.8 µM (active)
IC50 [4]: 29.9 µM (active)
IC50 [5]: > 100 µM (inactive)

Oc1[nH]c2ccccc2c1N=Nc1ccccc1
EC50 [6]: 54.6 µM (inactive)
EC50 [7]: 7.37 µM (inconclusive)
EC50 [8]: > 99 µM (inactive)
EC50 [9]: 18.3 µM (inconclusive)

COc1ccc(N2CCN(C(=O)c3ccc(Br)cc3)CC2)c([N+](=O)[O-])c1
AC50 [10]: 0.691 µM (active)

CN(CC(=O)Nc1ccc(Cl)c(C(F)(F)F)c1)C(=O)CC1Sc2ccccc2NC1=O (stereo not drawn)
IC50 [11]: 33.6 µM (active)

COc1ccc(C(=O)NCc2ccc(C)cc2)cc1S(=O)(=O)N1CCCC1
AC50 [12]: 19 µM (active)

COC(=O)C(NC(=O)c1ccc(OC)cc1)(Nc1ncc(S(=O)(=O)c2ccc([N+](=O)[O-])cc2)s1)C(F)(F)F (stereo not drawn)
CC50 [13]: > 40 µM (active)
IC50 [1]: 2.58 µM (active)
IC50 [2]: < 0.368 µM (active)
CC50 [14]: 13.4 µM (active)
EC50 [3]: > 53 µM (inactive)
